One may read the MIC as the lowest concentration found to suppress growth.

Six compounds from PubChem BioAssay AID463099 (The Scripps Research Institute Molecular Screening Center, 2010) can be followed below.

For this experiment, the system named is IMP-1-expressing E. coli growth, with imipenem, MIC. The experiment in a line: MIC in IMP1-transformed E. coli with imipenem – imipenem co-treatment, counter-screen for IMP-1/VIM-2 inhibitor project, late-stage follow-up (AID 463099). On the technique in general: The purpose of a counterscreen is to sort out artefacts and off-target activity.

Turning to `O=C(O)c1ccc[c]([Hg+])c1`, the MIC was 3.75 µM.
With `CC(=O)Nc1cc[c]([Hg+])cc1` the figure was 2.5 µM.
The result for `O=C(O)c1cc[c]([Hg][Cl])cc1` reads 9.38 µM.
The result for `[Hg+][c]1ccccc1` reads 0.63 µM.
In the case of `Cc1cc[c]([Hg+])cc1`, the MIC is 0.94 µM.
Consider `COc1cccc[c]1[Hg+]`, for which the MIC was 1.09 µM.
